Target: T1, Rv0888 (Mycobacterium tuberculosis, UniProt P9WKQ1)
T1 construct: gene spmT
Assay: DNase inhibition, circular plasmid DNA, agarose gel and A260 spectrophotometry
Format: biochemical
Settings: pH 6.5, 5 mM CaCl2, 5 mM MnCl2, 41 °C, 1 h

T1 sequence (P9WKQ1 32-490 limits assumed): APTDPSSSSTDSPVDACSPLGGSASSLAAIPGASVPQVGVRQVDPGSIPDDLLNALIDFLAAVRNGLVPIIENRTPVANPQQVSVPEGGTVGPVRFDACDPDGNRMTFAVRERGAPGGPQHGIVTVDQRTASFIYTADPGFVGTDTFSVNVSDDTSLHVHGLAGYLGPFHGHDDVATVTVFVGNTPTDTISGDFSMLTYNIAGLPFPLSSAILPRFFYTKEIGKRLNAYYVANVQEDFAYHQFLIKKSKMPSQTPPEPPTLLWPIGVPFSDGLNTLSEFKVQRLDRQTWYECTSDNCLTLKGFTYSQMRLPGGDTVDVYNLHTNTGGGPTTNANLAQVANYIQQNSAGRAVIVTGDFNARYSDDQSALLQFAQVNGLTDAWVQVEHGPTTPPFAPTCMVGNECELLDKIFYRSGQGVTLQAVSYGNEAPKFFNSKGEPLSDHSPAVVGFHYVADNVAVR

Structure (SMILES): C/C=C1/[C@H](O[C@@H]2O[C@H](CO)[C@@H](O)[C@H](O)[C@H]2O)OC=C(C(=O)OC)[C@H]1CC(=O)OCCc1ccc(O)c(O)c1 [Oleuropein]
- relative DNase activity at 0.5, 1, 2 mM: inhibited by four Chinese medicine monomers (Oleuropein, 6-Gingerol, Corylifolinin and Acteoside)

Structure (SMILES): CCCCC[C@H](O)CC(=O)CCc1ccc(O)c(OC)c1 [6-Gingerol]
- relative DNase activity at 0.5, 1, 2 mM: inhibited by four Chinese medicine monomers (Oleuropein, 6-Gingerol, Corylifolinin and Acteoside)

Structure (SMILES): C[C@@H]1O[C@@H](O[C@@H]2[C@@H](O)[C@H](OCCc3ccc(O)c(O)c3)O[C@H](CO)[C@H]2OC(=O)/C=C/c2ccc(O)c(O)c2)[C@H](O)[C@H](O)[C@H]1O [Acteoside]
- relative DNase activity at 0.5, 1, 2 mM: inhibited by four Chinese medicine monomers (Oleuropein, 6-Gingerol, Corylifolinin and Acteoside)

Structure (SMILES): CC(C)=CCc1c(O)ccc(C(=O)/C=C/c2ccc(O)cc2)c1O [Corylifolinin]
- relative DNase activity at 0.5, 1, 2 mM: inhibited by four Chinese medicine monomers (Oleuropein, 6-Gingerol, Corylifolinin and Acteoside)

— publication PMC4733049, “Characterization of Rv0888, a Novel Extracellular Nuclease from Mycobacterium tuberculosis” (Scientific Reports, 2016)
